Several values for one entry are separate records, joined by “and”; a condition that tells them apart may be missing. Equal entries are not always repeated. Toxic doses and inconclusive results are not listed. The calls were made as follows: active = survival T/C of 150% or more; inactive = T/C below 125% in these data.
Tested on: P388 leukemia ip, CD2F1 mice, survival T/C
Assay: NCI In Vivo Anticancer Drug Screen. Data for tumor model P388 Leukemia (intraperitoneal) in CD2F1 (CDF1) mice
Conditions: endpoint: median survival time, higher = longer survival
How it was run: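 Mice carrying the transplanted tumor received test compound or vehicle. Survival was recorded in each group, and the value is the treated-group measurement divided by that of the vehicle-treated control group.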

[1] = dose: 50.0 mg/kg/injection, schedule: Q01DX005 (ip), vehicle: Klucel (hydroxypropylcellulose) (HPC)
[2] = dose: 100.0 mg/kg/injection, schedule: Q01DX005 (ip), vehicle: Klucel (hydroxypropylcellulose) (HPC)
[3] = dose: 100.0 mg/kg/injection, schedule: Q04DX003 (ip), vehicle: saline with Tween-80
[4] = dose: 200.0 mg/kg/injection, schedule: Q04DX003 (ip), vehicle: saline with Tween-80
[5] = dose: 400.0 mg/kg/injection, schedule: Q04DX003 (ip), vehicle: saline with Tween-80
[6] = dose: 60.0 mg/kg/injection, schedule: Q01DX005 (ip), vehicle: saline with Tween-80
[7] = dose: 120.0 mg/kg/injection, schedule: Q01DX005 (ip), vehicle: saline with Tween-80
[8] = dose: 240.0 mg/kg/injection, schedule: Q01DX005 (ip), vehicle: saline with Tween-80
[9] = dose: 60.0 mg/kg/injection, schedule: Q01DX005 (ip), vehicle: saline
[10] = dose: 120.0 mg/kg/injection, schedule: Q01DX005 (ip), vehicle: saline
[11] = dose: 50.0 mg/kg/injection, schedule: Q01DX009 (ip), vehicle: saline with Tween-80
[12] = dose: 100.0 mg/kg/injection, schedule: Q01DX009 (ip), vehicle: saline with Tween-80
[13] = dose: 50.0 mg/kg/injection, schedule: Q01DX005 (ip), vehicle: saline with Tween-80
[14] = dose: 100.0 mg/kg/injection, schedule: Q01DX005 (ip), vehicle: saline with Tween-80
[15] = dose: 200.0 mg/kg/injection, schedule: Q01DX009 (ip), vehicle: saline with Tween-80

Measured: T/C

O=C(O)C1=CO[C@@H](OC2OC(CO)C(O)C(O)C2O)[C@H]2[C@@H]1C=C[C@]2(O)CO (some centres undefined)
inactive: dose: 4.68 mg/kg/injection, schedule: Q01DX009 (ip), vehicle: Klucel (hydroxypropylcellulose) (HPC) 101 % of control | dose: 9.37 mg/kg/injection, schedule: Q01DX009 (ip), vehicle: Klucel (hydroxypropylcellulose) (HPC) 97 % of control | dose: 18.75 mg/kg/injection, schedule: Q01DX009 (ip), vehicle: Klucel (hydroxypropylcellulose) (HPC) 97 % of control | dose: 37.5 mg/kg/injection, schedule: Q01DX009 (ip), vehicle: Klucel (hydroxypropylcellulose) (HPC) 94 % of control | dose: 75.0 mg/kg/injection, schedule: Q01DX009 (ip), vehicle: Klucel (hydroxypropylcellulose) (HPC) 98 % of control and 90 % of control | dose: 150.0 mg/kg/injection, schedule: Q01DX009 (ip), vehicle: Klucel (hydroxypropylcellulose) (HPC) 97 % of control

C=CCCN1CC2CC(C1)N1CCCCC1C2=O (centres undefined)
inactive: dose: 5.25 mg/kg/injection, schedule: Q01DX005 (ip), vehicle: Klucel (hydroxypropylcellulose) (HPC) 102 % of control | dose: 10.5 mg/kg/injection, schedule: Q01DX005 (ip), vehicle: Klucel (hydroxypropylcellulose) (HPC) 103 % of control | dose: 21.0 mg/kg/injection, schedule: Q01DX005 (ip), vehicle: Klucel (hydroxypropylcellulose) (HPC) 100 % of control | dose: 42.0 mg/kg/injection, schedule: Q01DX005 (ip), vehicle: Klucel (hydroxypropylcellulose) (HPC) 103 % of control

C1CNC(N2CCN(C3=NCCN3)CC2)=N1
inactive: [1] 104 % of control | [2] 100 % of control

COC(=O)[C@H]1[C@H]2C[C@@H]3c4[nH]c5cc(OC)ccc5c4CCN3C[C@H]2C[C@@H](OC(=O)c2cccc(N(C)C)c2)[C@@H]1OC
inactive: dose: 12.5 mg/kg/injection, schedule: Q01DX005 (ip), vehicle: Klucel (hydroxypropylcellulose) (HPC) 95 % of control | dose: 25.0 mg/kg/injection, schedule: Q01DX005 (ip), vehicle: Klucel (hydroxypropylcellulose) (HPC) 94 % of control | [1] 116 % of control | [2] 86 % of control

Cc1ccc(Cl)cc1N=Cc1ccccc1O
inactive: [3] 100 % of control | [4] 95 % of control | [5] 100 % of control

O=C(NC1C=Nc2ccc(Cl)cc2NC1=O)c1ccccc1Cl (centres undefined)
inactive: [6] 92 % of control | [7] 95 % of control | [8] 100 % of control

Nc1ccc2nc3c(N)ccc(N)c3nc2c1
inactive: dose: 3.75 mg/kg/injection, schedule: Q01DX005 (ip), vehicle: saline 100 % of control and 103 % of control | dose: 7.5 mg/kg/injection, schedule: Q01DX005 (ip), vehicle: saline 100 % of control and 105 % of control | dose: 15.0 mg/kg/injection, schedule: Q01DX005 (ip), vehicle: saline 100 % of control and 109 % of control | dose: 30.0 mg/kg/injection, schedule: Q01DX005 (ip), vehicle: saline 111 % of control and 116 % of control | [9] 116 % of control | [10] 118 % of control

CC1(C)CC(OS(=O)(=O)c2ccccc2)CC(C)(C)N1O
inactive: dose: 100.0 mg/kg/injection, schedule: Q01DX001 (ip), vehicle: Klucel (hydroxypropylcellulose) (HPC) 97 % of control | dose: 200.0 mg/kg/injection, schedule: Q01DX001 (ip), vehicle: Klucel (hydroxypropylcellulose) (HPC) 97 % of control | dose: 400.0 mg/kg/injection, schedule: Q01DX001 (ip), vehicle: Klucel (hydroxypropylcellulose) (HPC) 97 % of control

O=C(O)CCc1nc(-c2ccccc2-n2cccc2)no1
inactive: [11] 96 % of control | [12] 102 % of control

c1ccc2cc3c(N=Nc4cc5ccccc5[nH]4)cccc3cc2c1
inactive: dose: 100.0 mg/kg/injection, schedule: Q01DX001 (ip), vehicle: saline with Tween-80 97 % of control | dose: 200.0 mg/kg/injection, schedule: Q01DX001 (ip), vehicle: saline with Tween-80 97 % of control | dose: 400.0 mg/kg/injection, schedule: Q01DX001 (ip), vehicle: saline with Tween-80 94 % of control

O=[N+]([O-])c1ccc(OC2OCC(O)C(O)C2O)cc1 (centres undefined)
inactive: [9] 97 % of control | [10] 88 % of control | dose: 240.0 mg/kg/injection, schedule: Q01DX005 (ip), vehicle: saline 89 % of control

O=[N+]([O-])c1ccc(O)c(/C=N\NS(=O)(=O)c2ccc(F)cc2)c1
inactive: [13] 103 % of control | [14] 93 % of control

O=C1C2=C(CCC2)C2CCCC12 (centres undefined)
inactive: [11] 102 % of control | [12] 109 % of control | [15] 90 % of control

COc1ccc(C(Br)C(C)Br)cc1 (centres undefined)
inactive: [11] 104 % of control | [12] 90 % of control | [15] 95 % of control

Cc1c(C)c2c(c(C)c1O)CCC(C)(CCCC(C)CCCC(C)CCCC(C)C)O2 (centres undefined)
inactive: dose: 42.5 mg/kg/injection, schedule: Q01DX001 (ip), vehicle: olive oil, sesame oil, peanut oil 104 % of control | dose: 50.0 mg/kg/injection, schedule: Q01DX009 (ip), vehicle: olive oil, sesame oil, peanut oil 106 % of control | dose: 85.0 mg/kg/injection, schedule: Q01DX001 (ip), vehicle: olive oil, sesame oil, peanut oil 98 % of control | dose: 100.0 mg/kg/injection, schedule: Q01DX009 (ip), vehicle: olive oil, sesame oil, peanut oil 100 % of control | [12] 100 % of control | [3] 100 % of control | dose: 170.0 mg/kg/injection, schedule: Q01DX001 (ip), vehicle: olive oil, sesame oil, peanut oil 100 % of control and 97 % of control | dose: 200.0 mg/kg/injection, schedule: Q01DX009 (ip), vehicle: olive oil, sesame oil, peanut oil 103 % of control | [15] 104 % of control | [4] 100 % of control | dose: 340.0 mg/kg/injection, schedule: Q01DX001 (ip), vehicle: olive oil, sesame oil, peanut oil 91 % of control | dose: 400.0 mg/kg/injection, schedule: Q01DX009 (ip), vehicle: Klucel (hydroxypropylcellulose) (HPC) 102 % of control | dose: 400.0 mg/kg/injection, schedule: Q01DX009 (ip), vehicle: saline with Tween-80 100 % of control | [5] 87 % of control | dose: 800.0 mg/kg/injection, schedule: Q01DX009 (ip), vehicle: Klucel (hydroxypropylcellulose) (HPC) 101 % of control | dose: 1200.0 mg/kg/injection, schedule: Q01DX009 (ip), vehicle: Klucel (hydroxypropylcellulose) (HPC) 106 % of control | dose: 1600.0 mg/kg/injection, schedule: Q01DX009 (ip), vehicle: Klucel (hydroxypropylcellulose) (HPC) 113 % of control | dose: 42.5 IU/animal/injection, schedule: Q01DX001 (ip), vehicle: olive oil, sesame oil, peanut oil 102 % of control and 110 % of control | dose: 85.0 IU/animal/injection, schedule: Q01DX001 (ip), vehicle: olive oil, sesame oil, peanut oil 102 % of control and 105 % of control and 107 % of control | dose: 170.0 IU/animal/injection, schedule: Q01DX001 (ip), vehicle: olive oil, sesame oil, peanut oil 101 % of control and 113 % of control (2×) | dose: 340.0 IU/animal/injection, schedule: Q01DX001 (ip), vehicle: olive oil, sesame oil, peanut oil 102 % of control and 104 % of control

CCCCCCCCC[N+]1(CC)CCCC1
inactive: dose: 6.25 mg/kg/injection, schedule: Q01DX009 (ip), vehicle: saline 117 % of control | dose: 12.5 mg/kg/injection, schedule: Q01DX009 (ip), vehicle: saline 117 % of control | dose: 25.0 mg/kg/injection, schedule: Q01DX009 (ip), vehicle: saline 91 % of control

O=C1C=C(CCC2=CC(=O)c3ccccc3C2=O)C(=O)c2ccccc21
inactive: [6] 100 % of control | [7] 94 % of control

COc1ccc2c(NCCCCCCCCCCNc3c4ccccc4nc4cc(OC)ccc34)c3ccccc3nc2c1
active: dose: 2.5 mg/kg/injection, schedule: Q01DX009 (ip), vehicle: other 153 % of control | dose: 5.0 mg/kg/injection, schedule: Q01DX009 (ip), vehicle: other 155 % of control

CC(=O)/C(=C\c1ccc(C)cc1)C(=O)CCN(C)C
inactive: dose: 50.0 mg/kg/injection, schedule: Q01DX005 (ip), vehicle: saline 108 % of control | dose: 100.0 mg/kg/injection, schedule: Q01DX005 (ip), vehicle: saline 108 % of control | dose: 200.0 mg/kg/injection, schedule: Q01DX005 (ip), vehicle: saline 111 % of control

COc1nc(NC2OCC(OC(C)=O)C(OC(C)=O)C2OC(C)=O)c(N=C(C)C(C)=O)c(=O)n1C (centres undefined)
inactive: [6] 86 % of control | [7] 92 % of control | [8] 94 % of control

O=C1c2cccc3cc([N+](=O)[O-])cc(c23)C(=O)N1CCCN(CCO)CCO
inactive: dose: 25.0 mg/kg/injection, schedule: Q01DX005 (ip), vehicle: saline with Tween-80 105 % of control | [13] 107 % of control | [14] 108 % of control and 121 % of control

— PubChem BioAssay AID330 (DTP/NCI, 2004)
